In patent US10611750B2, “Tetrahydroquinoline compositions as bet bromodomain inhibitors” (FORMA Therapeutics, Inc., priority 2013, dated 2020):

Legend:
[1] = target: T1, BRD4 Bromodomain 1 (BRD4 BD1) (Homo sapiens, UniProt O60885); experiment: AlphaScreen binding assay, BRD4 BD1; conditions: His-tagged BRD4 BD1 50 nM, biotinylated H4 (1-21) K5/8/12/16 tetra-acetylated peptide 50 nM, compounds listed under IC50 range headings
T1 construct: 44-168 and BRD4 BD2
Method in brief: (§1)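 Compound dilution series were mixed with His-tagged BRD4 bromodomain and biotinylated tetra-acetylated H4 (1-21) peptide at pH 7.3 (BD1 and peptide at 50 nM, BD2 and peptide at 100 nM). Donor and acceptor beads were then added, and plates were equilibrated at least 1 h before reading. IC50 values were fitted with a four-parameter logistic model.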

[2] = target: T2, BRD4 Bromodomain 2 (BRD4 BD2) (Homo sapiens, UniProt O60885); experiment: AlphaScreen binding assay, BRD4 BD2; conditions: His-tagged BRD4 BD2 100 nM, biotinylated H4 (1-21) K5/8/12/16 tetra-acetylated peptide 100 nM, compounds listed under IC50 range headings
T2 construct: 333-460 were cloned, expressed, and purified to homogeneity
Method in brief: as §1

[3] = system: acute myelocytic leukemia (AML) cell line MV4-11; experiment: Oncology cell growth assay (3-day proliferation, CellTiter-Glo); assay type: cell-based; conditions: Homo sapiens, MV4-11, 72 h, MV4-11 cells, 3000 cells/well, compounds listed under IC50 range headings, read-out: MV411 IC50 (gIC50, inhibition of proliferation)
Method in brief: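 Compounds were serially diluted 3-fold in DMSO, giving final well concentrations from 10 down to 0.0045 μM. MV4-11 cells were then seeded at 3000 cells/well in RPMI 1640 with 10% FBS and incubated 72 hours. CellTiter-Glo signal was measured and gIC50 obtained by four-parameter logistic regression.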

Row | SMILES | IC50 [1] [nM] | IC50 [2] [nM] | IC50 [3] [nM]
1 | CC(=O)N1c2ccc(-c3cnn(C4CC4)c3)c(OCC(=O)N3CCC3)c2CC[C@@H]1C [I-7, (S)-2-(1-acetyl-6-(1-cyclopropyl-1H-pyrazol-4-yl)-2-methyl-1,2,3,4-tetrahydroquinolin-5-yloxy)-1-(azetidin-1-yl)ethanone] | 100 to 1000 | 50 to 500 | < 500
2 | CC(=O)N1c2ccc(-c3cnn(C4CC4)c3)c(OCC(=O)N3CCCCC3)c2CC[C@@H]1C [I-8, (S)-2-(1-acetyl-6-(1-cyclopropyl-1H-pyrazol-4-yl)-2-methyl-1,2,3,4-tetrahydroquinolin-5-yloxy)-1-(piperidin-1-yl)ethanone] | 100 to 1000 | 50 to 500 | < 500
3 | COC(=O)N1c2ccc(-c3cnn(C4CC4)c3)c(OCC(=O)N3CCC3)c2CC[C@@H]1C [I-23, (S)-methyl 5-(2-(azetidin-1-yl)-2-oxoethoxy)-6-(1-cyclopropyl-1H-pyrazol-4-yl)-2-methyl-3,4-dihydroquinoline-1(2H)-carboxylate] | 100 to 1000 | 50 to 500 | 500 to 1000
4 | COC(=O)N1c2ccc(-c3cnn(C4CC4)c3)c(OCC(=O)N3CCCCC3)c2CC[C@@H]1C [I-24, (S)-methyl 6-(1-cyclopropyl-1H-pyrazol-4-yl)-2-methyl-5-(2-oxo-2-(piperidin-1-yl)ethoxy)-3,4-dihydroquinoline-1(2H)-carboxylate] | 100 to 1000 | < 50 | > 1000
5 | CCCOc1c(C2=CCN(C(=O)OC(C)(C)C)CC2)ccc2c1CC[C@H](C)N2C(C)=O [I-34, tert-butyl (S)-4-(1-acetyl-2-methyl-5-propoxy-1,2,3,4-tetrahydroquinolin-6-yl)-3,6-dihydropyridine-1(2H)-carboxylate] | ≥ 10000 | 50 to 500 | > 1000
6 | CC(=O)N1c2ccc(-c3cnn(C4CC4)c3)c(OCC(F)F)c2CC[C@@H]1C [I-36, (S)-1-(6-(1-cyclopropyl-1H-pyrazol-4-yl)-5-(2,2-difluoroethoxy)-2-methyl-3,4-dihydroquinolin-1(2H)-yl)ethanone] | 1000 to 10000 | < 50 | 500 to 1000
7 | CC(=O)N1c2ccc(-c3cnn(C4CC4)c3)c(OCC(C)(C)CO)c2CC[C@@H]1C [I-39, (S)-1-(6-(1-cyclopropyl-1H-pyrazol-4-yl)-5-(3-hydroxy-2,2-dimethylpropoxy)-2-methyl-3,4-dihydroquinolin-1(2H)-yl)ethanone] | 100 to 1000 | < 50 | 500 to 1000
8 | CC(=O)N1c2ccc(-c3cnn(C4CC4)c3)c(OCCN3CCCC3=O)c2CC[C@@H]1C [I-42, (S)-1-(2-(1-acetyl-6-(1-cyclopropyl-1H-pyrazol-4-yl)-2-methyl-1,2,3,4-tetrahydroquinolin-5-yloxy)ethyl)pyrrolidin-2-one] | 100 to 1000 | 50 to 500 | > 1000
9 | CC(=O)N1c2ccc(-c3cnn(C4CC4)c3)c(OCC(=O)N3CCOCC3)c2CC[C@@H]1C [I-43, (S)-2-(1-acetyl-6-(1-cyclopropyl-1H-pyrazol-4-yl)-2-methyl-1,2,3,4-tetrahydroquinolin-5-yloxy)-1-morpholinoethanone] | 100 to 1000 | 50 to 500 | > 1000
10 | CC(=O)N1c2ccc(-c3cnn(C4CC4)c3)c(OCCN3CCCS3(=O)=O)c2CC[C@@H]1C [I-44, 2-(2-{[(2S)-1-acetyl-6-(1-cyclopropyl-1H-pyrazol-4-yl)-2-methyl-1,2,3,4-tetrahydroquinolin-5-yl]oxy}ethyl)-1λ^6,2-thiazolidine-1,1-dione] | 100 to 1000 | < 50 | 500 to 1000
11 | CC(=O)N1c2ccc(-c3cnn(C4CC4)c3)c(OCS(=O)(=O)N(C)C)c2CC[C@@H]1C [I-46, (S)-(1-acetyl-6-(1-cyclopropyl-1H-pyrazol-4-yl)-2-methyl-1,2,3,4-tetrahydroquinolin-5-yloxy)-N,N-dimethylmethanesulfonamide] | 1000 to 10000 | 50 to 500 | 500 to 1000
12 | CC(=O)N1c2ccc(-c3cnn(C4CC4)c3)c(OCC3CC3(F)F)c2CC[C@@H]1C (stereo partly drawn) [I-48, 1-((S)-6-(1-cyclopropyl-1H-pyrazol-4-yl)-5-((2,2-difluorocyclopropyl)methoxy)-2-methyl-3,4-dihydroquinolin-1(2H)-yl)ethanone] | < 100 | < 50 | < 500
13 | CC(=O)N1c2ccc(-c3cnn(C4CC4)c3)c(OCC3(CO)COC3)c2CC[C@@H]1C [I-49, (S)-1-(6-(1-cyclopropyl-1H-pyrazol-4-yl)-5-((3-(hydroxymethyl)oxetan-3-yl)methoxy)-2-methyl-3,4-dihydroquinolin-1(2H)-yl)ethanone] | 100 to 1000 | < 50 | > 1000
14 | CC(=O)N1c2ccc(-c3cnn(C4CC4)c3)c(OCC3(F)COC3)c2CC[C@@H]1C [I-50, (S)-1-(6-(1-cyclopropyl-1H-pyrazol-4-yl)-5-((3-fluorooxetan-3-yl)methoxy)-2-methyl-3,4-dihydroquinolin-1 (2H)-yl)ethanone] | 100 to 1000 | < 50 | 500 to 1000

Next, values leading:

Row | IC50 [1] [nM] | IC50 [2] [nM] | IC50 [3] [nM] | SMILES
15 | 1000 to 10000 | < 50 | > 1000 | COC(=O)N1c2ccc(-c3cnn(C4CC4)c3)c(OCCF)c2CC[C@@H]1C [I-11, (S)-methyl 6-(1-cyclopropyl-1H-pyrazol-4-yl)-5-(2-fluoroethoxy)-2-methyl-3,4-dihydroquinoline-1(2H)-carboxylate]
16 | 1000 to 10000 | 50 to 500 | 500 to 1000 | COC(=O)N1c2ccc(-c3cnn(C4CC4)c3)c(OCCC(F)(F)F)c2CC[C@@H]1C [I-13, (S)-methyl 6-(1-cyclopropyl-1H-pyrazol-4-yl)-2-methyl-5-(3,3,3-trifluoropropoxy)-3,4-dihydroquinoline-1(2H)-carboxylate]
17 | 1000 to 10000 | 50 to 500 | > 1000 | COC(=O)N1c2ccc(-c3cnn(C4CC4)c3)c(OC(F)(F)C(N)=O)c2CC[C@@H]1C [I-14, (S)-methyl 5-(2-amino-1,1-difluoro-2-oxoethoxy)-6-(1-cyclopropyl-1H-pyrazol-4-yl)-2-methyl-3,4-dihydroquinoline-1(2H)-carboxylate]
18 | 100 to 1000 | 50 to 500 | 500 to 1000 | COC(=O)N1c2ccc(-c3cnn(C4CC4)c3)c(OCC(C)(C)CO)c2CC[C@@H]1C [I-17, (S)-methyl 6-(1-cyclopropyl-1H-pyrazol-4-yl)-5-(3-hydroxy-2,2-dimethylpropoxy)-2-methyl-3,4-dihydroquinoline-1(2H)-carboxylate]
19 | 1000 to 10000 | 50 to 500 | > 1000 | COC(=O)N1c2ccc(-c3cnn(C4CC4)c3)c(O[C@H](F)C(N)=O)c2CC[C@@H]1C [I-19, (S)-methyl 5-((R)-2-amino-1-fluoro-2-oxoethoxy)-6-(1-cyclopropyl-1H-pyrazol-4-yl)-2-methyl-3,4-dihydroquinoline-1(2H)-carboxylate]
20 | ≥ 10000 | ≥ 500 | > 1000 | COC(=O)N1c2ccc(-c3cnn(C4CC4)c3)c(O[C@@H](F)C(N)=O)c2CC[C@@H]1C [I-20, (S)-methyl 5-((S)-2-amino-1-fluoro-2-oxoethoxy)-6-(1-cyclopropyl-1H-pyrazol-4-yl)-2-methyl-3,4-dihydroquinoline-1(2H)-carboxylate]
21 | 100 to 1000 | < 50 | < 500 | COC(=O)N1c2ccc(-c3cnn(C4CC4)c3)c(OCC(=O)N(C)C3CC3)c2CC[C@@H]1C [I-22, (S)-methyl 5-(2-(cyclopropyl(methyl)amino)-2-oxoethoxy)-6-(1-cyclopropyl-1H-pyrazol-4-yl)-2-methyl-3,4-dihydroquinoline-1(2H)-carboxylate]
22 | 1000 to 10000 | 50 to 500 | > 1000 | COC(=O)N1c2ccc(-c3cnn(C4CC4)c3)c(OCS(=O)(=O)N(C)C)c2CC[C@@H]1C [I-29, (S)-methyl 6-(1-cyclopropyl-1H-pyrazol-4-yl)-5-((N,N-dimethylsulfamoyl)methoxy)-2-methyl-3,4-dihydroquinoline-1(2H)-carboxylate]
23 | 1000 to 10000 | 50 to 500 | < 500 | COC(=O)N1c2ccc(-c3cnn(C4CC4)c3)c(OCCC3COC3)c2CC[C@@H]1C [I-30, (S)-methyl 6-(1-cyclopropyl-1H-pyrazol-4-yl)-2-methyl-5-(2-(oxetan-3-yl)ethoxy)-3,4-dihydroquinoline-1(2H)-carboxylate]
24 | 100 to 1000 | < 50 | 500 to 1000 | COC(=O)N1c2ccc(-c3cnn(C4CC4)c3)c(OCC3CC3(F)F)c2CC[C@@H]1C (stereo partly drawn) [I-31, (2S)-methyl 6-(1-cyclopropyl-1H-pyrazol-4-yl)-5-((2,2-difluorocyclopropyl)methoxy)-2-methyl-3,4-dihydroquinoline-1(2H)-carboxylate]
25 | 1000 to 10000 | 50 to 500 | 500 to 1000 | CC(=O)N1c2ccc(-c3cnn(C4CC4)c3)c(OCC(F)(F)F)c2CC[C@@H]1C [I-35, (S)-1-(6-(1-cyclopropyl-1H-pyrazol-4-yl)-2-methyl-5-(2,2,2-trifluoroethoxy)-3,4-dihydroquinolin-1(2H)-yl)ethanone]
